Source: BindingDB's records for doi:10.7270/Q2ZC817P (The Scripps Research Institute Molecular Screening Center, 2007)
pEC50: −log10 of the molar value. Structures can show the parent of a compound that is named as a salt.

Target: Sphingosine 1-phosphate receptor 1 (Homo sapiens, UniProt P21453)
Experiment: potentiators of S1P1 agonist response, dose response, cell-based, potentiator mode, 60K MLSMR set (AID 466)
Settings: not given

Sequence of Sphingosine 1-phosphate receptor 1 (P21453 whole entry): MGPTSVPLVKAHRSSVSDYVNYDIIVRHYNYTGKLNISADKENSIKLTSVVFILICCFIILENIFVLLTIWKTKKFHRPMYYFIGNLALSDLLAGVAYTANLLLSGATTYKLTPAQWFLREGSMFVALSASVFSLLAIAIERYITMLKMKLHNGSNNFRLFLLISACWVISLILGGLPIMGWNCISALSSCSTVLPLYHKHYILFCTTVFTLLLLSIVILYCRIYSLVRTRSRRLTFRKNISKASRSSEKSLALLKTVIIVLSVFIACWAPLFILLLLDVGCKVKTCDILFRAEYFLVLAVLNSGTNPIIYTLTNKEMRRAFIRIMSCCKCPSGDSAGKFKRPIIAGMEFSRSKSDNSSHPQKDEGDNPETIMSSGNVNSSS

Structure (SMILES) | pEC50
COC(=O)c1sc(NC(=O)c2ccc(OC)cc2OC)nc1C [2-[(2,4-dimethoxybenzoyl)amino]-4-methyl-thiazole-5-carboxylic acid methyl ester] | 5.11
Cc1cccc(N2CCN(C(=O)CSCc3c(C)noc3C)CC2)c1C [2-[(3,5-dimethyl-1,2-oxazol-4-yl)methylsulfanyl]-1-[4-(2,3-dimethylphenyl)piperazin-1-yl]ethanone] | 5.36
CCn1c(SCC(=O)Nc2nc3ccc(C)cc3s2)nc2c(c1=O)SC(C)C2 (centres undefined) [2-[(3-ethyl-4-keto-6-methyl-6,7-dihydrothieno[3,2-d]pyrimidin-2-yl)thio]-N-(6-methyl-1,3-benzothiazol-2-yl)acetamide] | 5.11
CC(C)OC(=O)CSc1nc(N)c(C#N)c(-c2cccs2)c1C#N [2-[(6-amino-3,5-dicyano-4-thiophen-2-yl-2-pyridinyl)thio]acetic acid propan-2-yl ester] | < 4.52
CC(C)(C)C1CCC2(CC1)C(C#N)=C(SCC(=O)Nc1ccccc1)NC(=O)C2C#N (centres undefined) [2-[(9-tert-butyl-1,5-dicyano-2-oxidanylidene-3-azaspiro[5.5]undec-4-en-4-yl)sulfanyl]-N-phenyl-ethanamide] | 5.33
CCN(CC)C(=O)CS/C(=N/C#N)Nc1ccccc1F [2-[[N-cyano-N'-(2-fluorophenyl)amidino]thio]-N,N-diethyl-acetamide] | < 4.02
Oc1ccc(C2NCc3ccccc3-n3cccc32)cc1Cl (centres undefined) [2-chloranyl-4-(5,6-dihydro-4H-pyrrolo[1,2-a][1,4]benzodiazepin-4-yl)phenol;hydrochloride] | 5.55
CCOC(=O)c1ccc2c(c1)C(=O)N(C1CCCCC1)C2=O [2-cyclohexyl-1,3-diketo-isoindoline-5-carboxylic acid ethyl ester] | < 4.02
COc1cc(C#CC#CCN2CCCCC2)ccc1O [2-methoxy-4-(5-piperidin-1-ylpenta-1,3-diynyl)phenol;hydrochloride] | 5.15
COCC(=O)Nc1cccc(C(F)(F)F)c1 [2-methoxy-N-[3-(trifluoromethyl)phenyl]acetamide] | < 4.02
N#CCCS(=O)(=O)c1nnnn1-c1ccccc1 [3-(1-phenyltetrazol-5-yl)sulfonylpropanenitrile] | 5.45
O=c1c(-c2ccc3c(c2)OCCO3)c(C(F)(F)F)oc2cc(O)cc(O)c12 [3-(2,3-dihydro-1,4-benzodioxin-6-yl)-5,7-bis(oxidanyl)-2-(trifluoromethyl)chromen-4-one] | 5.42
CCOC(=O)c1oc2cc(O)c(CC)cc2c(=O)c1-c1ccc2c(c1)OCCO2 [3-(2,3-dihydro-1,4-benzodioxin-6-yl)-6-ethyl-7-hydroxy-4-keto-chromene-2-carboxylic acid ethyl ester] | < 5.00
Cc1oc2cc(O)cc(O)c2c(=O)c1-c1ccc2c(c1)OCCCO2 [3-(3,4-dihydro-2H-1,5-benzodioxepin-7-yl)-2-methyl-5,7-bis(oxidanyl)chromen-4-one] | 5.43
COc1ccc(-c2noc(-c3cc(C)cc(C)c3)n2)cc1OC [3-(3,4-dimethoxyphenyl)-5-(3,5-dimethylphenyl)-1,2,4-oxadiazole] | 6.00
CCOc1ccc(-c2noc(-c3cccnc3)n2)cc1OC [3-(4-ethoxy-3-methoxy-phenyl)-5-(3-pyridyl)-1,2,4-oxadiazole] | 6.11
CC(C)Oc1cc(O)c2c(=O)c(-c3ccc(O)cc3)coc2c1 [3-(4-hydroxyphenyl)-5-oxidanyl-7-propan-2-yloxy-chromen-4-one] | 5.56
COc1ccc(-c2nc(-c3ccc(Br)o3)no2)cc1OC [3-(5-bromanylfuran-2-yl)-5-(3,4-dimethoxyphenyl)-1,2,4-oxadiazole] | 5.23

The remaining lines, values ahead:

pEC50 | Structure (SMILES)
< 5.00 | N#Cc1nc(COc2ccc(Cl)cc2Cl)oc1N1CCN(c2ccccc2)CC1 [2-[(2,4-dichlorophenoxy)methyl]-5-(4-phenyl-1-piperazinyl)-4-oxazolecarbonitrile]
6.95 | Cc1cc(C=c2sc3nc4ccccc4n3c2=O)c(C)n1-c1ccccn1 [2-[(2,5-dimethyl-1-pyridin-2-yl-pyrrol-3-yl)methylidene]-[1,3]thiazolo[3,2-a]benzimidazol-1-one]
5.90 | Cc1ccccc1-c1nnc(SCc2ccccc2F)o1 [2-[(2-fluorobenzyl)thio]-5-(2-methylphenyl)-1,3,4-oxadiazole]
5.94 | Cc1ccc(-c2nnc(SCc3ccccc3F)o2)cc1 [2-[(2-fluorobenzyl)thio]-5-(4-methylphenyl)-1,3,4-oxadiazole]
5.45 | Clc1ccc(CSc2nnc(-c3ccncc3)o2)cc1 [2-[(4-chlorobenzyl)thio]-5-(4-pyridyl)-1,3,4-oxadiazole]
5.65 | Cc1cc(C(=O)CSc2nnc(-c3ccncc3)n2-c2ccccc2)c(C)n1C [2-[(4-phenyl-5-pyridin-4-yl-1,2,4-triazol-3-yl)sulfanyl]-1-(1,2,5-trimethylpyrrol-3-yl)ethanone]
4.19 | COCCn1c(C)cc(C(=O)CSc2nc3ccccc3c(=O)[nH]2)c1C [2-[[2-[1-(2-methoxyethyl)-2,5-dimethyl-3-pyrrolyl]-2-oxoethyl]thio]-1H-quinazolin-4-one]
5.91 | COCCn1c(C)cc(C(=O)CSc2nnc(-c3cccnc3)n2-c2ccccc2F)c1C [2-[[4-(2-fluorophenyl)-5-(3-pyridinyl)-1,2,4-triazol-3-yl]thio]-1-[1-(2-methoxyethyl)-2,5-dimethyl-3-pyrrolyl]ethanone]
< 4.02 | Cc1ccccc1-n1c(SCC(=O)c2cc(C)n(C)c2C)nnc1-c1ccncc1 [2-[[4-(2-methylphenyl)-5-pyridin-4-yl-1,2,4-triazol-3-yl]sulfanyl]-1-(1,2,5-trimethylpyrrol-3-yl)ethanone]
< 4.02 | O=C(CSc1nnc(Cc2csc(Nc3cccc(Cl)c3)n2)o1)N1CCc2ccccc21 [2-[[5-[[2-(3-chloroanilino)-1,3-thiazol-4-yl]methyl]-1,3,4-oxadiazol-2-yl]sulfanyl]-1-(2,3-dihydroindol-1-yl)ethanone]
5.22 | Cc1ccc(-c2nc(CSCC(=O)N3CCN(c4ccccn4)CC3)c(C)o2)cc1 [2-[[5-methyl-2-(4-methylphenyl)-1,3-oxazol-4-yl]methylsulfanyl]-1-(4-pyridin-2-ylpiperazin-1-yl)ethanone]
5.03 | Clc1ccc(OCc2nnc(SCc3nc4ccccc4[nH]3)n2Cc2ccco2)cc1 [2-[[[5-[(4-chlorophenoxy)methyl]-4-(2-furanylmethyl)-1,2,4-triazol-3-yl]thio]methyl]-1H-benzimidazole]
5.18 | CCOc1nc(C)ccc1-c1noc(-c2ccncc2)n1 [2-ethoxy-6-methyl-3-[5-(4-pyridinyl)-1,2,4-oxadiazol-3-yl]pyridine]
< 4.52 | COc1ccc(-c2cn3c(C)c(C(=O)N4CCCc5ccccc54)sc3n2)cc1 [3,4-dihydro-2H-quinolin-1-yl-[6-(4-methoxyphenyl)-3-methyl-2-imidazo[2,1-b]thiazolyl]methanone]
5.10 | Cc1ccc(-n2c(C)cc(C(=O)COC(=O)c3c(C)noc3C)c2C)cc1 [3,5-dimethyl-4-isoxazolecarboxylic acid [2-[2,5-dimethyl-1-(4-methylphenyl)-3-pyrrolyl]-2-oxoethyl] ester]
5.17 | Cc1cc(-c2nnc(-c3ccccc3)c(-c3ccccc3)n2)c(C)o1 [3-(2,5-dimethyl-3-furanyl)-5,6-diphenyl-1,2,4-triazine]
6.37 | CCOc1ccc(-c2noc(-c3ccncc3)n2)cc1OCC [3-(3,4-diethoxyphenyl)-5-(4-pyridyl)-1,2,4-oxadiazole]
4.92 | CN(C)CC(C(=O)c1ccccc1)c1ccccc1 (centres undefined) [3-(dimethylamino)-1,2-diphenyl-1-propanone;hydrochloride]
5.82 | CCOc1ccc(-c2nc(-c3ccccc3C)no2)cc1 [3-(o-tolyl)-5-p-phenetyl-1,2,4-oxadiazole]
5.47 | CN(C)c1ccnc2sc3c(=O)n(Cc4ccccc4)cnc3c12 [3-Benzyl-9-dimethylamino-3H-pyrido[3',2':4,5]thieno[3,2-d]pyrimidin-4-one]

Same assay, conditions: inactive by the depositor's call

Structure (SMILES) | pEC50
Cc1ccc2nc(NC(=O)CSc3nc4c(c(=O)n3C)SC(C)C4)sc2c1 (centres undefined) [2-[(3,6-dimethyl-4-oxidanylidene-6,7-dihydrothieno[3,2-d]pyrimidin-2-yl)sulfanyl]-N-(6-methyl-1,3-benzothiazol-2-yl)ethanamide] | 4.78
Nn1c(Nc2ccccc2)nc2sc3c(c2c1=O)CCC3 [2-amino-3-anilino-7,8-dihydro-6H-cyclopenta[2,3]thieno[2,4-b]pyrimidin-1-one] | 4.66
COc1ccccc1-c1nc(-c2ccc(Br)cc2)no1 [3-(4-bromophenyl)-5-(2-methoxyphenyl)-1,2,4-oxadiazole] | 5.00
CCSc1nc(N2CCOCC2)c2c(c1C#N)CCCC2 [3-(ethylthio)-1-(4-morpholinyl)-5,6,7,8-tetrahydroisoquinoline-4-carbonitrile] | 4.51
Nc1c(C(=O)NC2CCCC2)sc2nc(-c3cccs3)ccc12 [3-Amino-6-thiophen-2-yl-thieno[2,3-b]pyridine-2-carboxylic acid cyclopentylamide] | 4.87

Second part, the molecule after the results:

pEC50 | Structure (SMILES)
4.86 | O=C(CSc1nnc(-c2ccc(Cl)cc2)n1Cc1ccco1)c1cccs1 [2-[[5-(4-chlorophenyl)-4-(2-furanylmethyl)-1,2,4-triazol-3-yl]thio]-1-thiophen-2-ylethanone]
4.75 | Cc1nc2sc(-c3ccccc3)cc2c(=O)n1-n1cccc1 [2-methyl-6-phenyl-3-(1-pyrrolyl)-4-thieno[2,3-d]pyrimidinone]
4.56 | Cc1ccc(-c2nc(COC(=O)c3c(C)noc3C)cs2)cc1 [3,5-dimethyl-4-isoxazolecarboxylic acid [2-(4-methylphenyl)-4-thiazolyl]methyl ester]
4.70 | Cc1onc(-c2ccccc2Cl)c1C(=O)Oc1cc(N)n(S(=O)(=O)c2ccc(F)cc2)n1 [3-(2-chlorophenyl)-5-methyl-4-isoxazolecarboxylic acid [5-amino-1-(4-fluorophenyl)sulfonyl-3-pyrazolyl] ester]
4.74 | CCOc1cc(-c2noc(-c3cccnc3)n2)ccc1OC [3-(3-ethoxy-4-methoxy-phenyl)-5-(3-pyridyl)-1,2,4-oxadiazole]
4.87 | COc1ccc(Cc2nc(-c3ccc(-n4cccc4)cc3)no2)cc1OC [3-(4-pyrrol-1-ylphenyl)-5-veratryl-1,2,4-oxadiazole]
